This assay deals with Male beagle dogs. Description: canine telemetry protocol, blood pressure reduction efficacy. The assay is classed as in vivo. Particulars: change from baseline, 3 mg/kg, oral gavage; for ΔPP (mm Hg) 1-6 h / ΔPP (mm Hg) 6-12 h / ΔPP (mm Hg) 12-18 h: pulse pressure; for ΔSBP (mm Hg) 1-6 h / ΔSBP (mm Hg) 6-12 h / ΔSBP (mm Hg) 12-18 h: systolic blood pressure. How it is done: Compounds of the invention were evaluated for blood pressure reduction efficacy using the following canine telemetry protocol described below.
Male beagle dogs (approximately 1-3 years old) with a body weight of between 10 and 16 kg were surgically implanted with DSI radiotelemetry devices (model: TL11M2-D70-PCT). Briefly, under an inhalant anesthesia, isoflurane/oxygen mixture (1-3.5%/to effect), the body of the telemetry device was positioned and secured intra-abdominally. Subsequently, the arterial catheter of the telemetry device was passed subcutaneously to the inguinal area and introduced into the femoral artery and advanced to the level of the descending aorta. The catheter was secured with 2-0 silk ligatures. The muscle and underlying fascia was closed over the catheter using absorbable suture and the skin was closed using non-absorbable suture. The animals were allowed a minimum recovery period of 2 weeks between surgery and the evaluation of test compounds.
Compound evaluation consisted of a 3 day paradigm at a 3 mg/kg dose. On the first day, no compounds were administered during a 24 hour period of baseline data collection. Blood pressure and heart rate data were collected continuously for one minute periods at 10 minute intervals. On the days of compound administration half the animals received test article with the other half receiving the vehicle used for compound formulation. All test materials were administered by oral gavage in a volume of 1 mL/kg. Data are expressed either as raw values (mm Hg or beats per minute) or as the change from baseline (average value for about 12 hours in low activity period prior to dosing). Change is SBP (systolic blood pressure) and PP (pulse pressure) over time is shown below: […]

Structures are written as SMILES.

Consider `CC(C)(C)NC(=O)N1CC[C@@H](O/N=[N+](\[O-])NC(C)(C)C)C1` [Example 9, O^2-[(3R)-1-(tert-butylcarbamoyl)pyrrolidin-3-yl]1-(N-tert-butylamino)diazen-1-ium-1,2-diolate], for which the “ΔPP (mm Hg) 1-6 h” value is recorded as −23 mm Hg, the “ΔPP (mm Hg) 6-12 h” value is reported as −27 mm Hg, the “ΔPP (mm Hg) 12-18 h” value was −11 mm Hg and the “ΔSBP (mm Hg) 1-6 h” value is −24 mm Hg. Moreover, the “ΔSBP (mm Hg) 6-12 h” value is −25 mm Hg and the “ΔSBP (mm Hg) 12-18 h” value is −18 mm Hg.
Take `CC(C)(C)N/[N+]([O-])=N/OC1CCN(c2ccc(C#N)cn2)CC1` [Example 22, O^2-[1-(5-cyanopyridin-2-yl)piperidin-4-yl]1-(N-tert-butylamino)diazen-1-ium-1,2-diolate]: the “ΔPP (mm Hg) 1-6 h” value is given as −15 mm Hg, the “ΔPP (mm Hg) 6-12 h” value is listed as −17 mm Hg, the “ΔPP (mm Hg) 12-18 h” value is listed as −16 mm Hg and the “ΔSBP (mm Hg) 1-6 h” value is given as −19 mm Hg. Besides, the “ΔSBP (mm Hg) 6-12 h” value is on record as −18 mm Hg and the “ΔSBP (mm Hg) 12-18 h” value was −21 mm Hg.
For the compound `CC(C)(C)N/[N+]([O-])=N/O[C@@H]1CCN(c2cccc(C#N)c2)C1` [Example 32, O^2-[(3R)-1-(3-cyanophenyl)pyrrolidin-3-yl]1-(N-tert-butylamino)diazen-1-ium-1,2-diolate], the “ΔPP (mm Hg) 1-6 h” value is given as −7 mm Hg, the “ΔPP (mm Hg) 6-12 h” value is −12 mm Hg, the “ΔPP (mm Hg) 12-18 h” value is listed as −13 mm Hg and the “ΔSBP (mm Hg) 1-6 h” value was −10 mm Hg. Besides, the “ΔSBP (mm Hg) 6-12 h” value is −17 mm Hg and the “ΔSBP (mm Hg) 12-18 h” value is given as −17 mm Hg.
Take `Cc1cccc(N2CC[C@@H](O/N=[N+](\[O-])NC(C)(C)C)C2=O)c1` [Example 36, O^2-[(3R)-1-(3-methylphenyl)-2-oxopyrrolidin-3-yl]1-(N-tert-butylamino)diazen-1-ium-1,2-diolate]: the “ΔPP (mm Hg) 1-6 h” value was −9 mm Hg, the “ΔPP (mm Hg) 6-12 h” value is given as −7 mm Hg, the “ΔPP (mm Hg) 12-18 h” value is −4 mm Hg and the “ΔSBP (mm Hg) 1-6 h” value is reported as −23 mm Hg. Besides, the “ΔSBP (mm Hg) 6-12 h” value is given as −17 mm Hg and the “ΔSBP (mm Hg) 12-18 h” value is −14 mm Hg.

Source of the values: patent US8361994B2, “Primary amine diazeniumdiolate heterocyclic derivatives” (Merck Sharp & Dohme Corp, priority 2011, dated 2013).
